This passage reports viability results from ChEMBL document CHEMBL3351906, “Bioactive triterpenoid saponins and phenolic compounds against glioma cells” (Bioorg Med Chem Lett, 2014).

The subject of assay [1] is U-251. Description: Inhibition of cell proliferation of human U251 cells assessed as cell viability at 100 uM after 72 hrs by sulforhodamine B assay. To be noted: U-251, 72 h, read-out: Activity. It is filed as functional. (Sulforhodamine B stains cellular protein and so reports cell mass.)
Assay [2] deals with C6. Description: Inhibition of cell proliferation of rat C6 cells assessed as cell viability at 100 uM after 72 hrs by sulforhodamine B assay. It is filed as functional. The conditions noted are these: C6, 72 h, read-out: Activity.

As for `O=C(/C=C/c1ccc(O)c(O)c1)O[C@H]1[C@H](O)C[C@@](O)(C(=O)O)C[C@H]1O`, the values for the viability at 100 µM in assay [1] and in assay [2] were 52.8% and 133%, respectively.

Consider `CC1(C)CC[C@]2(C(=O)O)[C@H](O)C[C@]3(C)C(=CC[C@@H]4[C@@]5(C)CC[C@H](O)C(C)(C)[C@@H]5CC[C@]43C)[C@H]2C1` [ECHINOCYSTIC ACID], for which the viability at 100 µM in assay [1] stood at 33.7%; in assay [2] it was 52.3%.

`CC(C)=CCC[C@](C)(O)[C@H]1CC[C@]2(C)[C@@H]1[C@H](O)C[C@@H]1[C@@]3(C)CC[C@H](O[C@@H]4O[C@H](CO)[C@@H](O)[C@H](O)[C@H]4O[C@@H]4O[C@H](CO)[C@@H](O)[C@H](O)[C@H]4O)C(C)(C)[C@@H]3CC[C@]12C`: the viability at 100 µM in assay [1] was 99.1%; in assay [2], 53.1%.

Turning to `CC(C)=CCC[C@](C)(O[C@@H]1O[C@H](CO)[C@@H](O)[C@H](O)[C@H]1O)[C@H]1CC[C@]2(C)[C@@H]1[C@H](O)C[C@@H]1[C@@]3(C)CC[C@H](O)C(C)(C)[C@@H]3[C@@H](O)C[C@]12C` [GINSENOSIDE F1], the viability at 100 µM was determined as 80.9% in assay [1] and 92% in assay [2].

Regarding `C/C=C/C(=O)OC[C@H]1O[C@@H](O[C@H]2[C@H](O[C@H]3CC[C@]4(C)[C@H]5C[C@@H](O)[C@@H]6[C@@H]([C@](C)(CCC=C(C)C)O[C@@H]7O[C@H](CO[C@@H]8O[C@H](CO)[C@@H](O)[C@H](O)[C@H]8O)[C@@H](O)[C@H](O)[C@H]7O)CC[C@@]6(C)[C@]5(C)CC[C@H]4C3(C)C)O[C@H](CO)[C@@H](O)[C@@H]2O)[C@H](O)[C@@H](O)[C@@H]1O`, the values for the viability at 100 µM in assay [1] and in assay [2] were 97.2% and 99.4%, respectively.

On to `CC(C)=CCC[C@](C)(O[C@@H]1O[C@H](CO)[C@@H](O)[C@H](O)[C@H]1O)[C@H]1CC[C@]2(C)[C@@H]1[C@H](O)C[C@@H]1[C@@]3(C)CC[C@H](O[C@@H]4O[C@H](CO)[C@@H](O)[C@H](O)[C@H]4O[C@@H]4O[C@H](CO)[C@@H](O)[C@H](O)[C@H]4O)C(C)(C)[C@@H]3[C@@H](O)C[C@]12C`, for which the figures for the viability at 100 µM in assay [1] and in assay [2] were 94.5% and 97.5%, respectively.

As for `CC(C)=CCC[C@](C)(O)[C@H]1CC[C@]2(C)[C@@H]1[C@H](O)C[C@@H]1[C@@]3(C)CC[C@H](O)C(C)(C)[C@@H]3[C@@H](O[C@@H]3O[C@H](CO)[C@@H](O)[C@H](O)[C@H]3O[C@@H]3O[C@@H](C)[C@H](O)[C@@H](O)[C@H]3O)C[C@]12C` [GINSENOSIDE RG2], the viability at 100 µM in assay [1] amounted to 103%; in assay [2], 96.5%.

For the molecule `O=C(/C=C/c1ccc(O)c(O)c1)O[C@H]1[C@H](O)C[C@](O)(C(=O)O)C[C@H]1OC(=O)/C=C/c1ccc(O)c(O)c1`, the viability at 100 µM in assay [1] was found to be 119%; in assay [2] it was 46%.

Consider `CC(C)=CCC[C@](C)(O[C@@H]1O[C@H](CO)[C@@H](O)[C@H](O)[C@H]1O)[C@H]1CC[C@]2(C)[C@@H]1[C@H](O)C[C@@H]1[C@@]3(C)CC[C@H](O[C@@H]4O[C@H](CO)[C@@H](O)[C@H](O)[C@H]4O)C(C)(C)[C@@H]3CC[C@]12C` [GINSENOSIDE F2], for which the viability at 100 µM in assay [1] was 64.6%; in assay [2], 117%.

With `CC(C)=CCC[C@](C)(O[C@@H]1O[C@H](CO[C@@H]2OC[C@H](O)[C@H](O)[C@H]2O)[C@@H](O)[C@H](O)[C@H]1O)[C@H]1CC[C@]2(C)[C@@H]1[C@H](O)C[C@@H]1[C@@]3(C)CC[C@H](O)C(C)(C)[C@@H]3[C@@H](O)C[C@]12C` [GINSENOSIDE F3], the figures for the viability at 100 µM in assay [1] and in assay [2] were 104% and 93.6%, respectively.

Consider `CC(C)=CCC[C@](C)(O[C@@H]1O[C@H](CO[C@H]2O[C@H](CO)[C@@H](O)[C@@H]2O)[C@@H](O)[C@H](O)[C@H]1O)[C@H]1CC[C@]2(C)[C@@H]1[C@H](O)C[C@@H]1[C@@]3(C)CC[C@H](O)C(C)(C)[C@@H]3[C@@H](O)C[C@]12C` [GINSENOSIDE F5], for which the viability at 100 µM is 102% in assay [1] and 92.8% in assay [2].

With `C/C=C(/C)C(=O)O[C@H]1[C@H](O)[C@]2(CO)[C@H](O)C[C@]3(C)C(=CC[C@@H]4[C@@]5(C)CC[C@H](O[C@@H]6O[C@H](C(=O)O)[C@@H](O[C@@H]7O[C@H](CO)[C@@H](O)[C@H](O)[C@H]7O)[C@H](O)[C@H]6O[C@@H]6O[C@H](CO)[C@@H](O)[C@H](O)[C@H]6O)[C@](C)(CO)[C@@H]5CC[C@]43C)[C@@H]2CC1(C)C`, the viability at 100 µM was 94.6% in assay [1] and 90.7% in assay [2].

`CC(C)=CC/C=C(/C)[C@H]1CC[C@]2(C)[C@@H]1[C@H](O)C[C@@H]1[C@@]3(C)CC[C@H](O)C(C)(C)[C@@H]3[C@@H](O)C[C@]12C`: the figures for the viability at 100 µM in assay [1] and in assay [2] were 92.7% and 75.6%, respectively.

As for `C[C@@H]1O[C@@H](OC[C@H]2O[C@@H](Oc3c(-c4ccc(O)c(O)c4)oc4cc(O)cc(O)c4c3=O)[C@H](O)[C@@H](O)[C@@H]2O)[C@H](O)[C@H](O)[C@H]1O` [RUTIN], the viability at 100 µM in assay [1] stood at 61.5%; in assay [2], 62.1%.

As to `CC(C)=CCC[C@](C)(O[C@@H]1O[C@H](CO)[C@@H](O)[C@H](O)[C@H]1O)[C@H]1CC[C@]2(C)[C@@H]1[C@H](O)C[C@@H]1[C@@]3(C)CC[C@H](O[C@@H]4O[C@H](CO)[C@@H](O)[C@H](O)[C@H]4O[C@@H]4O[C@H](CO)[C@@H](O)[C@H](O)[C@H]4O)C(C)(C)[C@@H]3CC[C@]12C` [GINSENOSIDE RD], the viability at 100 µM in assay [1] is 78.4%; in assay [2] it was 102%.

Take `CC(C)=CCC[C@](C)(O[C@@H]1O[C@H](CO[C@@H]2O[C@H](CO)[C@@H](O)[C@H](O)[C@H]2O)[C@@H](O)[C@H](O)[C@H]1O)[C@H]1CC[C@]2(C)[C@@H]1[C@H](O)C[C@@H]1[C@@]3(C)CC[C@H](O[C@@H]4O[C@H](CO)[C@@H](O)[C@H](O)[C@H]4O)C(C)(C)[C@@H]3CC[C@]12C` [GYPENOSIDE XVII]: the figures for the viability at 100 µM in assay [1] and in assay [2] were 86.5% and 80.8%, respectively.

Consider `CC(C)=CCC[C@](C)(O[C@@H]1O[C@H](CO[C@@H]2O[C@@H](CO)[C@H](O)[C@H]2O)[C@@H](O)[C@H](O)[C@H]1O)[C@H]1CC[C@]2(C)[C@@H]1[C@H](O)C[C@@H]1[C@@]3(C)CC[C@H](O[C@@H]4O[C@H](CO)[C@@H](O)[C@H](O)[C@H]4O[C@@H]4O[C@H](CO)[C@@H](O)[C@H](O)[C@H]4O)C(C)(C)[C@@H]3CC[C@]12C` [GINSENOSIDE RC], for which the viability at 100 µM worked out at 87.7% in assay [1] and 79% in assay [2].

For the molecule `O=C(O)[C@H]1O[C@@H](Oc2cc3oc(-c4ccccc4)cc(=O)c3c(O)c2O)[C@H](O)[C@@H](O)[C@@H]1O` [BAICALIN], the viability at 100 µM turned out to be 91.8% in assay [1] and 80.4% in assay [2].

As to `CC(C)=CCC[C@@](C)(O)[C@H]1CC[C@]2(C)[C@@H]1[C@H](O)C[C@@H]1[C@@]3(C)CC[C@H](O[C@@H]4O[C@H](CO)[C@@H](O)[C@H](O)[C@H]4O[C@@H]4O[C@H](CO)[C@@H](O)[C@H](O)[C@H]4O)C(C)(C)[C@@H]3CC[C@]12C`, the viability at 100 µM in assay [1] worked out at 77.5%; in assay [2], 97.2%.

With `C/C=C(\C)C(=O)O[C@H]1[C@H](O)[C@]2(CO)[C@H](O)C[C@]3(C)C(=CC[C@@H]4[C@@]5(C)CC[C@H](O[C@@H]6O[C@H](C(=O)O)[C@@H](O[C@@H]7O[C@H](CO)[C@@H](O)[C@H](O)[C@H]7O)[C@H](O)[C@H]6O[C@@H]6O[C@H](CO)[C@@H](O)[C@H](O)[C@H]6O)[C@@](C)(CO)[C@@H]5CC[C@]43C)[C@@H]2CC1(C)C`, the viability at 100 µM in assay [1] was 92.7%; in assay [2] it was 89.6%.

`O=C(/C=C/c1ccc(O)c(O)c1)O[C@@H]1C[C@](O)(C(=O)O)C[C@@H](O)[C@H]1O` [CHLOROGENIC ACID]: the viability at 100 µM in assay [1] was 56.6%; in assay [2] it was 77.4%.

On to `CC(C)=CCC[C@](C)(O[C@@H]1O[C@H](CO[C@@H]2OC[C@H](O)[C@H](O)[C@H]2O)[C@@H](O)[C@H](O)[C@H]1O)[C@H]1CC[C@]2(C)[C@@H]1[C@H](O)C[C@@H]1[C@@]3(C)CC[C@H](O[C@@H]4O[C@H](CO)[C@@H](O)[C@H](O)[C@H]4O[C@@H]4O[C@H](CO)[C@@H](O)[C@H](O)[C@H]4O)C(C)(C)[C@@H]3CC[C@]12C` [GINSENOSIDE RB2], for which the viability at 100 µM in assay [1] came out at 77.5%; in assay [2], 80.9%.

`CC1(C)CC[C@]2(C(=O)O)CC[C@]3(C)C(=CC[C@@H]4[C@@]5(C)CC[C@H](O)C(C)(C)[C@@H]5CC[C@]43C)[C@@H]2C1` [OLEANOLIC_ACID]: the viability at 100 µM was determined as 67.8% in assay [1] and 59.2% in assay [2].

Turning to `CC(C)=CCC[C@](C)(O[C@@H]1O[C@H](CO)[C@@H](O)[C@H](O)[C@H]1O)[C@H]1CC[C@]2(C)[C@@H]1[C@H](O)C[C@@H]1[C@@]3(C)CC[C@H](O[C@@H]4O[C@H](CO)[C@@H](O)[C@H](O)[C@H]4O)C(C)(C)[C@@H]3[C@@H](O)C[C@]12C`, the viability at 100 µM in assay [1] was 92.5%; in assay [2] it was 65.6%.

As for `COc1c(O)ccc(O)c1-c1cc(=O)c2c(O)cc(O)c(OC)c2o1`, the viability at 100 µM in assay [1] was found to be 87.5%; in assay [2] it was 57.7%.

For `CC(C)=CCC[C@](C)(O[C@@H]1O[C@H](CO[C@@H]2O[C@H](CO)[C@@H](O)[C@H](O)[C@H]2O)[C@@H](O)[C@H](O)[C@H]1O)[C@H]1CC[C@]2(C)[C@@H]1[C@H](O)C[C@@H]1[C@@]3(C)CC[C@H](O[C@@H]4O[C@H](CO)[C@@H](O)[C@H](O)[C@H]4O[C@@H]4O[C@H](CO)[C@@H](O)[C@H](O)[C@H]4O)C(C)(C)[C@@H]3CC[C@]12C` [GINSENOSIDE RB1], the viability at 100 µM in assay [1] was found to be 76.1%; in assay [2] it was 79%.
